In experiment [1] the test system is MCF-7 (human breast). Kind of experiment: cells. It is filed as cell-based. The conditions noted are these: MCF-7 human breast cell line, in vitro.
Experiment [2] has as its system MCF7-ADR (resistant). In words: cells. It is filed as cell-based, human. The conditions noted are these: for IC50: MCF7-ADR resistant cell line, in vitro; for MCF7-ADR/MCF7: ratio of IC50 in MCF7-ADR to IC50 in MCF-7.

As to `CC(=O)O[C@H]1C(=O)[C@@]2(C)[C@H]([C@H](OC(=O)c3ccccc3)[C@]3(O)C[C@H](OC(=O)[C@H](O)[C@@H](NC(=O)c4ccccc4)c4ccccc4)C(C)=C1C3(C)C)[C@]1(OC(C)=O)CO[C@@H]1C[C@@H]2O` [Taxol, reference compound], the IC50 in experiment [1] (MCF7) was 6.1 ± 0.3 nM; in experiment [2] (Homo sapiens, NCI/ADR-RES) it was 360 ± 7.8 nM. In experiment [2], the MCF7-ADR/MCF7 came to 59.01.

The compound `CCCCCC/C=C/C#CCCCCCCCC(=O)Oc1cc2c(c(OC)c1OC)-c1ccc(SC)c(=O)cc1C(NC(=O)C(F)(F)C(F)(F)F)CC2` (stereo not shown) [Compound II, N-deacetyl-N-pentafluoropropionyl-3-O-ximenoyl-thiocolchicine] came in with an IC50 in experiment [1] of 5 ± 0.2 nM. In experiment [2], 11 ± 1.9 nM corresponded to half-maximal inhibition (IC50) and the MCF7-ADR/MCF7 worked out at 2.2.

As for `COc1cc2c(c(OC)c1OC)-c1ccc(SC)c(=O)cc1[C@@H](NC(=O)C(F)(F)C(F)(F)C(F)(F)F)CC2` [Compound IV, N-deacetyl-N-heptafluorobutyroyl-thiocolchicine], the IC50 was found to be 3.2 ± 0.2 nM in experiment [1] (MCF7) and 31 ± 1.9 nM in experiment [2] (Homo sapiens, NCI/ADR-RES). The MCF7-ADR/MCF7 in experiment [2] stood at 9.7.

For the compound `COc1c(OC2C=CCC2)cc2c(c1OC)-c1ccc(SC)c(=O)cc1[C@@H](NC(=O)C(F)(F)C(F)(F)F)CC2` (stereo partly shown) [Compound III, N-deacetyl-N-pentafluoropropionyl-3-O-demethyl-3-O-cyclopentenyl-thiocolchicine], the IC50 stood at 4.1 ± 0.3 nM in experiment [1] (MCF7) and 7 ± 0.4 nM in experiment [2] (Homo sapiens, NCI/ADR-RES). For the same compound, in experiment [2], the MCF7-ADR/MCF7 is on record as 1.7.

On to `COc1cc2c(c(OC)c1OC)-c1ccc(OC)c(=O)cc1[C@@H](NC(C)=O)CC2` [Colchicine, colchicine, reference compound], for which the MCF7-ADR/MCF7 in experiment [2] is recorded as 25.45.

With `COc1cc2c(c(OC)c1OC)-c1ccc(SC)c(=O)cc1[C@@H](NC(=O)C(F)(F)C(F)(F)F)CC2` [Compound I, N-deacetyl-N-pentafluoro-propionyl-thiocolchicine], the IC50 stood at 6.2 ± 0.4 nM in experiment [1] (MCF7) and 26 ± 2.3 nM in experiment [2] (Homo sapiens, NCI/ADR-RES). The MCF7-ADR/MCF7 in experiment [2] is reported as 4.2.

The IC50 is the concentration that gives 50% inhibition. Lower therefore signals greater potency in that assay.

(Values after patent US5880160A (priority 1995, dated 1999).)
